Assay results reported in patent US20250145566A1, “PHENETHYLAMINE DERIVATIVES, COMPOSITIONS, AND METHODS OF USE” (Cybin IRL Limited, priority 2022, published 2025).
Where two headings read alike, the source gives them in different places.

Key:
5-HT2B (h) [1] = biological target: T1, 5-HT2B (h) (Homo sapiens, UniProt P41595); experiment: 5-HT2B (h) agonist radioligand [125I](±)DOI binding
T1 construct: expressed in transfected cells; host or cells: CHO cells
Method: (§1) Samples were then analyzed as described above.

5-HT2A (h) [2] = biological target: T2, 5-HT2A (h) (Homo sapiens, UniProt P28223); experiment: 5-HT2A (h) agonist radioligand [125I](±)DOI binding
T2 construct: expressed in transfected cells; host or cells: HEK-293 cells

5-HT2C (h) [3] = biological target: T3, 5-HT2C (h) (Homo sapiens, UniProt P28335); experiment: 5-HT2C (h) agonist radioligand [125I](±)DOI binding
T3 construct: expressed in transfected cells; host or cells: HEK-293 cells
T3 sequence (P28335 33-458): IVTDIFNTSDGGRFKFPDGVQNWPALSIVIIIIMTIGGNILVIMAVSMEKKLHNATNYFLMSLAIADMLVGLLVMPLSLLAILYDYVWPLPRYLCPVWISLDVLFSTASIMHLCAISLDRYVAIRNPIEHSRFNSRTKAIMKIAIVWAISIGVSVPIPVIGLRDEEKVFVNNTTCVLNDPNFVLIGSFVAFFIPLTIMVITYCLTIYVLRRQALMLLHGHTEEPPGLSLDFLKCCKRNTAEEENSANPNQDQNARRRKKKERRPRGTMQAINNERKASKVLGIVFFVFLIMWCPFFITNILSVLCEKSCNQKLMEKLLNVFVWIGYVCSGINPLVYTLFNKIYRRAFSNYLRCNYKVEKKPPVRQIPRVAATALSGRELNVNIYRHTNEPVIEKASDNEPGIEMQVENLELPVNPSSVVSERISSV
Method: as §1

dopamine transporter (h) = biological target: T4, dopamine transporter (h) (Homo sapiens, UniProt Q01959); experiment: dopamine transporter (h) binding, [3H]BTCP
T4 construct: expressed in transfected cells; host or cells: CHO cells

Dopamine transporter [4] = biological target: T5, Dopamine transporter (Homo sapiens, UniProt Q01959); experiment: Dopamine transporter uptake (h); type: cell-based
[5] = biological target: T6, norepinephrine transporter (h) (Homo sapiens, UniProt P23975); experiment: norepinephrine transporter (h) binding, [3H]nisoxetine; conditions: at 10 μM; table calls these values “No Binding”
T6 construct: expressed in transfected cells; host or cells: CHO cells

5-HT transporter (h) [6] = biological target: T7, 5-HT transporter (h) (Homo sapiens, UniProt P31645); experiment: 5-HT transporter (h) binding, [3H]imipramine
T7 construct: expressed in transfected cells; host or cells: CHO cells

5-HT2C (h) [7] = biological target: T3, 5-HT2C (h); experiment: 5-HT2C (h) agonist effect, IP1 HTRF functional assay; type: cell-based
[8] = biological target: T8, Norepinephrine transporter (Homo sapiens, UniProt P23975); experiment: Norepinephrine transporter uptake (h); type: cell-based
5-HT2A (h) [9] = biological target: T2, 5-HT2A (h); experiment: 5-HT2A (h) agonist effect, IP1 HTRF functional assay; type: cell-based
5-HT2B (h) [10] = biological target: T1, 5-HT2B (h); experiment: 5-HT2B (h) agonist effect, IP1 HTRF functional assay; type: cell-based
Serotonin transporter = biological target: T9, Serotonin transporter (Rattus norvegicus, UniProt P31652); experiment: Serotonin transporter uptake, rat brain synaptosomes; type: biochemical
T9 construct: from tissue

5-HT transporter (h) [11] = biological target: T7, 5-HT transporter (h); conditions: read-out: Binding SERT Ki; literature, racemic; cited from earlier work
5-HT2A (h) [12] = biological target: T2, 5-HT2A (h); conditions: read-out: Binding 5-HT2A Ki; antagonist radioligand; literature, racemic; cited from earlier work
[13] = biological target: T6, norepinephrine transporter (h); conditions: read-out: Binding NET Ki; literature, racemic; cited from earlier work
[14] = biological target: T8, Norepinephrine transporter; conditions: racemic, cited from earlier work
Dopamine transporter [15] = biological target: T5, Dopamine transporter; conditions: variable numbers in the literature, racemic, cited from earlier work
5-HT2A (h) [16] = biological target: T2, 5-HT2A (h); conditions: literature, single enantiomers, cited from earlier work; for EC50: read-out: Function 5-HT2A EC50
5-HT2C (h) [17] = biological target: T3, 5-HT2C (h); conditions: literature, single enantiomers; cited from earlier work
5-HT2A receptor = biological target: T10, 5-HT2A receptor (Homo sapiens, UniProt P28223); conditions: literature value (Rickli et al. 2016); cited from earlier work
T10 construct: host or cells: HEK293 (ATCC CRL-1573), transient, membranes

[18] = Hill coefficient, reference compound result
[19] = agonist radioligand [125I](±)DOI, reference compound result
[20] = read-out: Function DAT IC50, lower end of literature range
[21] = read-out: Function DAT IC50, upper end of literature range

T5 sequence (Q01959 whole entry): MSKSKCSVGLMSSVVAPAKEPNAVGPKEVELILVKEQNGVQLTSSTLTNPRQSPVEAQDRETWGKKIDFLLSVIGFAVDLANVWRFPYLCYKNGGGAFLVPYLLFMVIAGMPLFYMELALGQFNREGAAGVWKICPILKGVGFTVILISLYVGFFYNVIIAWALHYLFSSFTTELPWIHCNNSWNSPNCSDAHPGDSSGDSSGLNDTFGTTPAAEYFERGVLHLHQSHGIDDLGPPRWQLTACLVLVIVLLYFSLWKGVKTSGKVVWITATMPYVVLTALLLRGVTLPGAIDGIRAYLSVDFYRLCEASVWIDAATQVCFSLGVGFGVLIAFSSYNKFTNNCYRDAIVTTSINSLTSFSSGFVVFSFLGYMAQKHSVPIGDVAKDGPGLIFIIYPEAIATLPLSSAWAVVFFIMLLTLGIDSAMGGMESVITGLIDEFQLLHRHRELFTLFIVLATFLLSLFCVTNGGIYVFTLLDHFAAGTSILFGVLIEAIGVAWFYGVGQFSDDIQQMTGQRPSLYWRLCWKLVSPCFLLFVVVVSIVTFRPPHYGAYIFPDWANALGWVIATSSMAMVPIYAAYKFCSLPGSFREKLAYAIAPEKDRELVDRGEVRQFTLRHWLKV
T8 sequence (P23975 whole entry): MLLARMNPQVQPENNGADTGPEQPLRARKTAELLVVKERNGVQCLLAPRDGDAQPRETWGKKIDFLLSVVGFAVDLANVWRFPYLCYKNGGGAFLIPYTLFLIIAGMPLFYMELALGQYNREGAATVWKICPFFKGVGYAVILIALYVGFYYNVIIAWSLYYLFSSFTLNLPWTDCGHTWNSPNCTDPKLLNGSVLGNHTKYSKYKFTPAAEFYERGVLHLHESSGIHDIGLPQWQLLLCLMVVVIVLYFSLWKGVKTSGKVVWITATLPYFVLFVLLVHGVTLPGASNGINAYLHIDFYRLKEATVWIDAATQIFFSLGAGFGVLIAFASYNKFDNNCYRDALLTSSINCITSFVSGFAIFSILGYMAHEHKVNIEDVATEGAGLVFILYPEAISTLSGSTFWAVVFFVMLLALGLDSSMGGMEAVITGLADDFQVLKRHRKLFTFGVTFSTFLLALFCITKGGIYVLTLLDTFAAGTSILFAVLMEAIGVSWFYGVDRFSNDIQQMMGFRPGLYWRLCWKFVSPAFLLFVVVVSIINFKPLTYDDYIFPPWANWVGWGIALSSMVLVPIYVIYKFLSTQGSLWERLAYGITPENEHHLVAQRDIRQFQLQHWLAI
T9 sequence (P31652 whole entry): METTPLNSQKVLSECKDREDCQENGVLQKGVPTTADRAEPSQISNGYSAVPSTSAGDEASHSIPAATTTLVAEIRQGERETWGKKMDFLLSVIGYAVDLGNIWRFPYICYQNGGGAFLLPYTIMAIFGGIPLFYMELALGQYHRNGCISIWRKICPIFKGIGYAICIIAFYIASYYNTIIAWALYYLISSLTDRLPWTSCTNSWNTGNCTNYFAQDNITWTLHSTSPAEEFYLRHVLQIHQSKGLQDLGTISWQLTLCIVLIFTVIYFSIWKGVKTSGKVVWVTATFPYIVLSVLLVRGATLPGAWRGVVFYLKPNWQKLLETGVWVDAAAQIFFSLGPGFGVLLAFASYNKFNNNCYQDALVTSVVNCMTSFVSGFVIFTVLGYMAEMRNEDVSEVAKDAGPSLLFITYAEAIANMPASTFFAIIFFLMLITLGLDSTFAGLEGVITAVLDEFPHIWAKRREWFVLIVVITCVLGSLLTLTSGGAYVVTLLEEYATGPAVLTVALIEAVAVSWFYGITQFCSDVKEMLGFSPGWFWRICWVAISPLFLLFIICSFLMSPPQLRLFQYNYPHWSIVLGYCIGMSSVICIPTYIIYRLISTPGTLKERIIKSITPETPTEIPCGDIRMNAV
T7 sequence (P31645 whole entry): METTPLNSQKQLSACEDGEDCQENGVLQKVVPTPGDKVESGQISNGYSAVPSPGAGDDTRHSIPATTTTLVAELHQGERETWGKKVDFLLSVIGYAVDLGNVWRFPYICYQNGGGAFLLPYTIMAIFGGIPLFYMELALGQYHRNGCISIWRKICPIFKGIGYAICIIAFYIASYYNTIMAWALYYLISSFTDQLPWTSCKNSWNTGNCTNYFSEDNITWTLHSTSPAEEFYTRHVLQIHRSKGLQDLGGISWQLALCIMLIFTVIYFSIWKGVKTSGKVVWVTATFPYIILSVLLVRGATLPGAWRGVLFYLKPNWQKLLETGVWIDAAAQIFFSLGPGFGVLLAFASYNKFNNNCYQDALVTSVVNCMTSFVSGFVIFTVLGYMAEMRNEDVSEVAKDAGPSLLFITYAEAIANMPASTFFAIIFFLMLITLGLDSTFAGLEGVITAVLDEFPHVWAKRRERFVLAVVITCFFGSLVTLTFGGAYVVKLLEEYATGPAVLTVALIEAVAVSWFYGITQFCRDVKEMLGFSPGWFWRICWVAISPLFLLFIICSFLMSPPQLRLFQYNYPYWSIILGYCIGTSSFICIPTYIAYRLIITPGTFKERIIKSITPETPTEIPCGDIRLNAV
T2 sequence (P28223 whole entry): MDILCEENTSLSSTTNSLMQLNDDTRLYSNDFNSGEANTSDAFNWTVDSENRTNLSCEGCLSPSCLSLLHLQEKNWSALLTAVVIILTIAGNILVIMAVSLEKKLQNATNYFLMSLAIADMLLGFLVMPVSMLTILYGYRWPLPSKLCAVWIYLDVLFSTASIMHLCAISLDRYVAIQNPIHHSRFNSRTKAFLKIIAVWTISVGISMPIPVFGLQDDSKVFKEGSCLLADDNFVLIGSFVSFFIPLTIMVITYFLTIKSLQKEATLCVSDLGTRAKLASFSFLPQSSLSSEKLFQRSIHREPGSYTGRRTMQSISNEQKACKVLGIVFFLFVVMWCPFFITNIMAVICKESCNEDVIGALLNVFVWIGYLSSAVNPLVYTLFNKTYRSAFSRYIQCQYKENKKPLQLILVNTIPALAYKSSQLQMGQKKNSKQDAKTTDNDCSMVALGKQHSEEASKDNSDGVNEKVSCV
T1 sequence (P41595 whole entry): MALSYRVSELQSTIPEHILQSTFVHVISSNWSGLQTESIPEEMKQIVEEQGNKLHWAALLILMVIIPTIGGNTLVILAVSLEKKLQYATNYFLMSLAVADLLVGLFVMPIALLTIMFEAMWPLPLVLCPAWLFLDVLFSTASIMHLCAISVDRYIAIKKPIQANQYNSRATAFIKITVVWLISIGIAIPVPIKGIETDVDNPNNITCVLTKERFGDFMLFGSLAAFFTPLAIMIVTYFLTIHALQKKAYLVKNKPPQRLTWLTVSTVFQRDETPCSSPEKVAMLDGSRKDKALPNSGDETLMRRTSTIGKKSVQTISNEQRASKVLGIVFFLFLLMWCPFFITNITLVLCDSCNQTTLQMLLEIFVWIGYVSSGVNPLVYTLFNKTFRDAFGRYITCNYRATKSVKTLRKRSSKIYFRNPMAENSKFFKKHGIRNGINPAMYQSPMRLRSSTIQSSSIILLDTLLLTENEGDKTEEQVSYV
T4 sequence (Q01959 whole entry): as the sequence (Q01959 whole entry) above
T6 sequence (P23975 whole entry): as the sequence (P23975 whole entry) above
T10 sequence (P28223 whole entry): as the sequence (P28223 whole entry) above

COc1cc(CC(C)N)c(OC)cc1I (racemic) [(±)DOI]
nH (5-HT2B (h) [1]; [18]): 1.1 | IC50 (5-HT2B (h) [1]; [19]): 3.8 nM | Ki (5-HT2B (h) [1]; [19]): 1.9 nM | nH (5-HT2A (h) [2]; [18]): 1.0 | nH (5-HT2C (h) [3]; [18]): 0.9 | IC50 (5-HT2C (h) [3]; [19]): 0.37 nM | Ki (5-HT2C (h) [3]; [19]): 0.33 nM

c1ccc2sc(C3(N4CCCCC4)CCCCC3)cc2c1 [BTCP, reference compound]
nH (dopamine transporter (h); [18]): 1.0

CC(N)Cc1ccc2c(c1)OCS2 (racemic) [II-16 (racemic)]
Binding 5-HT2B (agonist radioligand), % competition (5-HT2B (h) [1]; at 10 μM): 100.1% competition | inhibition at 100 µM (Dopamine transporter [4]; at 100 μM, read-out: Function DAT, inhibition of DAT): 99.1% | IC50 (Dopamine transporter [4]; blocking reuptake of DA, read-out: Function DAT Estimated IC50): ~1000 nM | Function DAT (blocking reuptake of DA), efficacy in words (Dopamine transporter [4]; tested at 1, 10, 100 μM): Full efficacy, | Binding 5-HT2A (agonist radioligand), % competition (5-HT2A (h) [2]; at 10 μM): 94.4% competition | Binding NET (antagonist radioligand), % competition [5]: 25.2% competition | Binding DAT (antagonist radioligand), % competition (dopamine transporter (h); at 10 μM, table calls these values “No Binding”): 15.7% competition | Binding SERT (antagonist radioligand), % competition (5-HT transporter (h) [6]; at 10 μM): 68.1% competition | EC50 (5-HT2C (h) [7]; Gq-IP1, estimated from four concentrations, read-out: Function 5-HT2C Estimated EC50): < 800 nM | Emax at 10 µM (5-HT2C (h) [7]; at 10 μM, relative to 5-HT, read-out: Function 5-HT2C EMAX): 99.3% | Function 5-HT2C (Gq-IP1, efficacy relative to 5-HT), agonist type (5-HT2C (h) [7]; tested at 1, 3, 10, 100 μM): Full agonist - | inhibition at 10 µM ([8]; at 10 μM, read-out: Function NET, inhibition of NET): 93.5% | IC50 ([8]; blocking reuptake of NE, read-out: Function NET Estimated IC50): < 1000 nM | Function NET (blocking reuptake of NE), efficacy in words ([8]; tested at 1, 10, 100 μM): Near full efficacy, | EC50 (5-HT2A (h) [9]; IP-1, estimated from four concentrations, read-out: Function 5-HT2A Estimated EC50): 2500 nM | Emax at 10 µM (5-HT2A (h) [9]; at 10 μM, relative to 5-HT, read-out: Function 5-HT2A EMAX): 89.8% | Function 5-HT2A (IP-1, efficacy relative to 5-HT), agonist type (5-HT2A (h) [9]; tested at 1, 3, 10, 100 μM): Nearly full agonist - | EC50 (5-HT2B (h) [10]; Gq-IP1, estimated from four concentrations, read-out: Function 5-HT2B Estimated EC50): < 500 nM | Emax at 1 µM (5-HT2B (h) [10]; at 1 μM, relative to 5-HT, read-out: Function 5-HT2B EMAX): 100% | Function 5-HT2B (Gq-IP1, efficacy relative to 5-HT), agonist type (5-HT2B (h) [10]; tested at 1, 3, 10, 100 μM): Full agonist - | inhibition at up to 100 µM (Serotonin transporter; across dose range tested (1, 3, 10, 100 μM), read-out: Function SERT, inhibition of SERT): 95.3 to 106% | IC50 (Serotonin transporter; blocking reuptake of 5-HT, read-out: Function SERT Estimated IC50): < 200 nM | Function SERT (blocking reuptake of 5-HT), efficacy in words (Serotonin transporter; tested at 1, 3, 10, 100 μM): Full efficacy, | Binding 5-HT2C (agonist radioligand), % competition (5-HT2C (h) [3]; at 10 μM): 98.4% competition

CNC(C)Cc1ccc2c(c1)OCO2 (centres unmarked) [MDMA, 3,4-methylenedioxymethamphetamine]
Ki (5-HT transporter (h) [11]): > 10 µM | Ki (5-HT2A (h) [12]): 7.8 µM | Ki [13]: > 10 µM | IC50 ([14]; read-out: Function NET IC50, lower end of literature range, variable numbers in the literature): ≥ 108 nM | IC50 ([14]; read-out: Function NET IC50, upper end of literature range, variable numbers in the literature): ≤ 6600 nM | IC50 (Dopamine transporter [15]; [20]): ≥ 0.41 µM | IC50 (Dopamine transporter [15]; [21]): ≤ 17 µM

CN[C@@H](C)Cc1ccc2c(c1)OCO2 [S-MDMA]
Function 5-HT2A EMAX (5-HT2A (h) [16]): EMAX = 9% | EC50 (5-HT2A (h) [16]): 10.3 µM | Function 5-HT2C EMAX (5-HT2C (h) [17]): EMAX = 53%

CN(C)CCCN1c2ccccc2CCc2ccccc21 [imipramine, reference compound]
nH (5-HT transporter (h) [6]; [18]): 1.2

CC(N)Cc1ccc2c(c1)OCO2 (centres unmarked) [MDA, 3,4-methylenedioxyamphetamine]
IC50 ([14]; read-out: Function NET IC50, literature): ~300 nM | IC50 (Dopamine transporter [15]; [20]): ≥ 0.89 µM | IC50 (Dopamine transporter [15]; [21]): ≤ 21 µM

CN[C@H](C)Cc1ccc2c(c1)OCO2 [R-MDMA]
Function 5-HT2A EMAX (5-HT2A (h) [16]): EMAX = 21% | EC50 (5-HT2A (h) [16]): 3.1 µM | Function 5-HT2C EMAX (5-HT2C (h) [17]): EMAX = 27%

COc1cc(CCN)cc(OC)c1OC [Reference Compound 1, 3,4,5-trimethoxyphenethylamine]
Ki (5-HT2A receptor): 6.3 µM
